“Also recorded” adds a separate entry of the source.
Experiments:
[1] = tested on: XS 106A cell
[2] = tested on: XS106 cells; experiment: Cytokine content of supernatants by ELISA; format: cell-based, mouse
[3] = tested on: XS106 cells; experiment: FACS analysis of I-A, CD80 and CD86 expression; format: cell-based, mouse; details: for effect on ATPγS-enhanced CD80 expression: pre-incubated with 300 μM oATP for 2 hours, then GM-CSF/LPS and ATPγS
[4] = tested on: CAF1 mice; experiment: Tumor vaccine: delayed-type hypersensitivity to tumor-associated antigens (TAA), footpad swelling; details: mouse, in vivo
[5] = tested on: group A streptococcus (GAS); design: species or system Streptococcus pyogenes; details: in vivo
[6] = tested on: BALB/c mice; experiment: Contact hypersensitivity (CHS) assay, DNFB, ear swelling; details: mouse, in vivo
[7] = tested on: XS106
[8] = tested on: Langerhans cells; experiment: HDK-1 assay: antigen presentation by Langerhans cells, IFNγ by ELISA; format: cell-based, BALB/c mice

Question: With `Nc1ncnc2c1ncn2[C@@H]1O[C@H](COP(=O)(O)OP(=O)(O)OP(=O)(O)O)[C@@H](O)[C@H]1O` [ATP] as the molecule, how does the cell viability [1] read?
Answer: No effect on viability

Question: And the “secretion of IL-1β” value ([2]; ATP, significant at 10^−3 M and 10^−4 M, NS at 10^−5 M and 10^−6 M)?
Answer: greatly augmented secretion

Question: Which “effect on ATPγS-enhanced CD80 expression” value [3] does the source give for `Nc1ncnc2c1ncn2[C@@H](C=O)O[C@@H](C=O)COP(=O)(O)OP(=O)(O)OP(=O)(O)O` [oxidized ATP, reference compound] here?
Answer: inhibits the effect of ATPγS on CD80 expression

Question: And the “effect on ATPγS-enhanced CD80 expression” value ([3]; listed as oATP)?
Answer: inhibited

Question: What about the “effect on ATPγS-induced IL-1β secretion” value ([2]; data not shown) of the same molecule?
Answer: significantly inhibited

Question: Which “delayed-type hypersensitivity (DTH) response, footpad swelling” value [4] does the source give for `Nc1ncnc2c1ncn2[C@@H]1O[C@H](COP(=O)(O)OP(=O)(O)OP(O)(O)=S)[C@@H](O)[C@H]1O` [ATPγS] here?
Answer: significantly enhanced; also recorded: significantly greater DTH response

Question: And the “lesion size vs mice immunized with killed GAS alone” value [5]?
Answer: much smaller lesions

Question: And the “mean areas of the lesions” value [5]?
Answer: 2.80±1.11 mm^2

Question: And the “ear swelling (contact hypersensitivity response)” value [6]?
Answer: significantly augmented; also recorded: greatest ear swelling; also recorded: increased response upon challenge

Question: And the “ear swelling (contact hypersensitivity response), ATPγS injected at a site distant from that of immunization” value [6]?
Answer: no effect on the response

Question: And the “ear swelling, ATPγS only (not immunized with DNFB)” value [6]?
Answer: least ear swelling

Question: And the “expression of CD80” value [3]?
Answer: enhanced; also recorded: enhances expression

Question: What about the “expression of CD86” value [3] of the same molecule?
Answer: enhanced; also recorded: enhances expression

Question: What about the “expression of I-A” value [3] of the same molecule?
Answer: enhanced; also recorded: enhances expression

Question: And the “release of IL-1β” value [2]?
Answer: significantly increased; also recorded: significant increase

Question: What about the “release of IL-10” value [2] of the same molecule?
Answer: decreasing release; also recorded: decrease

Question: What about the “release of IL-12” value [2] of the same molecule?
Answer: significantly increased; also recorded: significant increase

Question: And the “concentrations that induce apoptosis” value [7]?
Answer: greater than 10^−6 molar

Question: And the “IFNγ release by HDK-1 cells (presentation of KLH by LCs)” value [8]?
Answer: dose-dependent increase; also recorded: augmented the ability of LCs to present KLH

Question: And the “IFNγ, LCs incubated with ATPγS in the absence of KLH” value [8]?
Answer: only background levels; also recorded: did not significantly change the background response

Question: And the “concentration at which the IFNγ response begins to decrease” value [8]?
Answer: greater than 10^−6 molar

Source: patent US20050053612A1, “Nucleotide regulation of immune responses” (priority 2003, published 2005)
